For orientation: solubility means how much of the substance goes into solution per volume. In general, EC50 refers to the concentration at which the effect is half-maximal. By inhibition is commonly meant the share of the control response that was lost under treatment.

Entries after “also recorded” stand apart in the source; their conditions may differ. Where a name gives a salt, the structure may show the parent alone. Read-outs that look alike come from different tables or passages of the source. A value given as a limit tells only on which side of the number the result lay.

The values below come from patent USRE48898E1, “Prodrugs of 2,4-pyrimidinediamine compounds and their uses” (Rigel Pharmaceuticals, Inc., priority 2006, dated 2022).

Data set [1] has as its system collagen-induced arthritis. The data set is described as follows: Collagen-induced arthritis (CIA). Type of data set: in vivo, Syngeneic LOU rats. The source says: One of the experimental models for IC-mediated tissue injury is the CIA in rodents (Kleinau et al., 2000, J. Exp. Med. 191:1611-1616). Injection of type II collagen (CII) into rodents produces an immune reaction that characteristically involves inflammatory destruction of cartilage and bone of the distal joints with concomitant swelling of surrounding tissues. CIA in rats is commonly used to evaluate compounds that might be of potential use as drugs for treatment of rheumatoid arthritis and other chronic inflammatory conditions and is induced in susceptible strains of either mice or rats by injection of CII in incomplete Freund's adjuvant (IFA). Administration of this emulsion gives rise to polyarthritis, characterized by synovial hyperplasia, infiltration of mononuclear cells, pannus formation, and destruction of cartilage and bone. […] Syngeneic LOU rats were immunized on Day 0 with native chicken CII/IFA. Oral treatment began at the onset of arthritis symptoms (Day 10). […] Hind limbs were scored daily for clinical arthritis severity using a standardized method based on the degree of joint inflammation. High resolution digital radiographs of hind limbs were obtained at the conclusion of the study (Day 28). These limbs were also analyzed for histopathologic changes. IgG antibodies to native CII were measured in quadruplicate by ELISA. […] Brahn. 2004). Blinded composite histopathologic studies confirmed the regression of pannus and erosions: […] Antibodies to native CII were not decreased in Compound 1-treated rats.

Data set [2] can be described thus: GLP mutagenicity and clastogenicity studies (Ames, chromosomal aberration, mouse micronucleus). The procedure:
(§1) GLP toxicology studies included negative mutagenicity and clastogenicity studies (Ames, chromosomal aberration, and mouse micronucleus). […] The No Observed Adverse Effect Level (NOAEL) is 10-30 mg/kg/day for rats and 100 mg/kg/day for monkeys.

Data set [3] has as its system collagen antibody-induced arthritis (CAIA). The data set is described as follows: Collagen antibody-induced arthritis (CAIA) model. Type of data set: in vivo, Balb/c mice. The source says: This passive model differs from the traditional rodent collagen-induced arthritis (CIA) in that disease symptoms appear quickly (developing within 24-48 hrs after an IV-injection of antibodies), arthritis is inducible in both CIA-susceptible and CIA-resistant mouse strains, and it allows evaluation of inflammation that is independent of antibody production. CAIA was induced in Balb/c mice by intravenous injection of Arthrogen-CIA® Monoclonal Antibody Blend (Chemicon International, Inc., Temecula, Calif.) via the tail vein, followed 2 days later by an intraperitoneal injection of LPS. […] The severity of the arthritis in hind-paws was scored daily (scale of 0-4 per paw, sum of scores for both hind paws).

Another data set is described as follows: Water solubility. It counts as physicochemical.
Data set [4] has as its system Cord-Blood Derived Primary Human Mast Cells (CHMC). The data set is described as follows: FcϵRI-dependent activation of CHMC, activity of tryptase released upon degranulation. Type of data set: cell-based. The settings on record: Mast cell.
The test system of a further data set is CHMCs. The experiment in a line: Ionomycin-induced degranulation of CHMCs. Type of data set: cell-based, Human.
Data set [5] has as its system FcϵRI-dependent production and release of cytokines. The data set is described as follows: FcϵRI-dependent production and release of cytokines. The settings on record: read-out: EC50, all cytokines tested. Type of data set: cell-based.
The conditions of data set [6]: in vivo. The method, then:
as §1

Data set [7] relates to FcϵRI-dependent production and release of LTC4. The data set is described as follows: FcϵRI-dependent production and release of LTC4. Type of data set: cell-based.
The subject of data set [8] is Reverse Passive Arthus (RPA) reaction. The experiment in a line: Reverse Passive Arthus (RPA) reaction. It counts as in vivo, rat. The text has this: IC-mediated acute inflammatory tissue injury is implicated in a variety of human autoimmune diseases, including vasculitis, serum sickness, systemic lupus erythematosus, RA, and glomerulonephritis. The classical experimental model for IC-mediated tissue injury is the Reverse Passive Arthus (RPA) reaction. Intravenous injection of antigen (ovalbumin, OVA) following intradermal injection of antibodies specific to OVA (rabbit anti-OVA IgG) results in perivascular deposition of IC and a rapid inflammatory response characterized by edema, neutrophil infiltration, and hemorrhage at the injection sites (Szalai, et al., 2000, J. Immunol. 164(1):463-468).

Data set [9] can be described thus: Pharmacokinetics, IV and oral dosing. Type of data set: in vivo, Sprague-Dawley rats. The procedure: Prodrug Compound 4 was tested for oral bioavailability. For the study, the prodrug was dissolved in various vehicles (e.g. PEG 400 solution and CMC suspension) for intravenous and oral dosing in the rats. […] Following administration of the prodrug and/or drug, plasma samples were obtained and extracted. The plasma concentrations of the prodrug and/or drug were determined by high performance liquid chromatography/tandem mass spectrometry (LC/MS/MS) methods. Pharmacokinetic analyses were performed based on the plasma concentration data. The pharmacokinetic parameters of interest include Clearance (CL), Volume of distribution at steady-state (Vss), terminal half-life (t ½), and oral bioavailability (% F).
Referring to FIG. 4, PK profiles are shown for IV and PO administration in Sprague-Dawley rats. For IV administration, Compound 4 was dissolved in PEG-400 and administered at a dose of 1 mg/kg.
FIG. 5 summarizes the PK parameters for the study described in FIG. 4.
FIG. 11 illustrates the absorption of prodrug Compound 4 from different vehicles. […] Prodrug Compound 4 is absorbed equally well in solution formulations (PEG-400 and carboxymethylcellulose (CMC)) and as a powder in hard gelatin capsules.

A further data set is described as follows: Stability in rat plasma. Type of data set: in vitro ADME. The source says:
The presence of Phosphatase activity in rat plasma was confirmed using p-nitrophenyl phosphate—a known substrate for phosphatase.

A short description of data set [10]: Conversion of prodrug to drug in microsome preparations. It counts as in vitro ADME, rat. The source says: Although phosphate-containing prodrugs suitable for oral administration are of interest, skilled artisans will appreciate that prodrugs including phosphate-containing progroups R^p can be administered via other routes of administration, as phosphatases are distributed throughout the body. […] Thus, the only requirement is that the particular phosphate-containing progroup R^p selected should be removable under the conditions of intended use.

Data set [11] is described as follows: Stability under acidic and neutral conditions. It counts as physicochemical. Conditions: acidic and neutral conditions at 37° C.
The nature of data set [12]: Moisture sorption analysis. It counts as physicochemical. The method, then:
The sample for moisture analysis was allowed to dry at 25° C. for up to 4 hours under a stream of dry nitrogen. The relative humidity was then increased stepwise from 10 to 90% relative humidity (adsorption scan) allowing the sample to equilibrate for a maximum of four hours before weighing and moving on to the next step. The desorption scan was measured from 85 to 0% relative humidity with the same equilibration time. The sample was then dried at 80° C. for 2 hours or until no weight loss was observed under a stream of dry nitrogen.

[13] abbreviates: aqueous buffer, aqueous buffer under physiological conditions, read-out: water solubility.
The mark [14] stands for this setting: water, water solubility, read-out: Solubility.
[15] abbreviates: water, in water, read-out: solubility.

Consider `COc1cc(Nc2ncc(F)c(Nc3ccc4c(n3)NC(=O)C(C)(C)O4)n2)cc(OC)c1OC` [Compound 1, N4-(2,2-dimethyl-3-oxo-4H-5-pyrido[1,4]oxazin-6-yl)-5-fluoro-N2-(3,4,5-trimethoxyphenyl)-2,4-pyrimidinediamine], for which the arthritis severity entry in data set [1] (30 mg/kg q.d. p.o., evident within 7 days after initiation of therapy, p<0.05) was “significant reduction”. Besides, the “Mean modified Mankin scores” value in data set [1] (30 mg/kg, vehicle 11.8±0.9, p<0.001) is reported as 3.7±0.9. The same compound showed a clinical score in data set [1] (Day 28, 30 mg/kg, vehicle 6.08±0.67, p<0.001) of 2.54±0.98. Besides, the “joint damage, blinded radiographs” value in data set [1] (Day 28, vehicle 3.66±0.71, p<0.02) is 1.63±0.67. Also, the “Antibodies to native CII” value in data set [1] (ELISA, treated rats) is “not decreased”. Also, the mutagenicity and clastogenicity result in data set [2] was “negative”. Further, the “arthritis severity, disease incidence, time of onset” value in data set [3] (lower dose levels, p>0.05) is “the differences were not significant”. The clinical arthritis result in [3] (oral, b.i.d., vs vehicle, p<0.05) is given as “significantly reduced clinical arthritis”. Moreover, the solubility in “Water solubility” (setting [13]) was less than 1 µg/mL; in “Water solubility” (phosphate buffer, pH 7.5, aqueous buffer, phosphate buffer at pH=7.5, read-out: measured solubility), less than 1 µg/mL; in the data set “Water solubility” (setting [14]), less than 1 µg/mL. The results for the half-maximal effective concentration (EC50) in data set [4], in data set [5] and in data set [7] were roughly 43 nM, 158 to 462 nM and 39 nM, respectively. Moreover, in the data set with CHMCs, the “inhibition of ionomycin-induced degranulation” value is recorded as “does not inhibit”. Also, the 28-day toxicity findings result was “reversible effect on hematology” in data set [6] (monkey); “reversible effect on hematology, liver transaminase (mild effect in the rat only), spleen and thymus size (rat only) and bone marrow cellularity (rat and monkey)” in data set [6] (rat). Further, in data set [6] (rat), the “CD45RA+ cells, immunophenotyping” value is “significant increase”. Moreover, in [6] (rat), the Histopathology entry is listed as “mild reductions in marrow cellularity”. For the same compound, the “humoral immunity, anti-KLH antibody assessment” value in data set [6] (rat) is “no evidence for untoward effects”. Moreover, the “percentage of CD3+ cells, immunophenotyping” value in data set [6] (rat) is reported as “significant decrease”. The inhibition at 10 mg/kg in data set [8] (Rattus norvegicus, 10 mg/kg oral, rats, compared with vehicle control, read-out: inhibition of extravascular leakage of Evans blue dye (OD610) from tissue biopsies) is 80%. For the same compound, the “cutaneous RPA reaction and inflammatory edema” value in data set [8] (single oral treatment of rats one hour prior to antigen/antibody) was “reduced the cutaneous RPA reaction and inflammatory edema in a dose-dependent manner”.

As for `COc1cc(Nc2ncc(F)c(Nc3ccc4c(n3)N(COP(=O)(O)O)C(=O)C(C)(C)O4)n2)cc(OC)c1OC` [Compound 4, N4-(2,2-dimethyl-4-[(dihydrogenphosphonoxy)methyl]-3-oxo-5-pyrido[1,4]oxazin-6-yl)-5-fluoro-N2-(3,4,5-trimethoxyphenyl)-2,4-pyrimidinediamine], in [9] (IV 1 mg/kg in PEG-400), the “plasma profile of prodrug after IV administration” value is given as “Rapid disappearance”. The “levels of drug metabolite Compound 1 after oral prodrug” value in data set [9] (oral, PEG-400) is reported as “high levels”. In [9] (oral, PEG-400), the “systemic presence of prodrug after oral administration” value was “no prodrug Compound 4 was present systemically”. Besides, in data set [9] (oral, Compound 4 4 mg/kg vs Compound 1 2.5 mg/kg in PEG-400), the “AUC/dose (Compound 1 exposure) / absorption, prodrug vs drug Compound 1” value is “nearly identical”. Also, in data set [9] (rats, PEG-400 and CMC solutions, powder in hard gelatin capsules), the “dependence of absorption on formulation” value was “not dependent upon formulation; also recorded: not dependent on formulation”. Also, in data set [9] (study of FIG. 4/5), the clearance of prodrug entry was “rapidly cleared”. Besides, the “stability in rat plasma / hydrolysis to Compound 1” value in the data set “Stability in rat plasma” was “metabolize to the active drug Compound 1; also recorded: unstable”. Besides, the “conversion to drug Compound 1” value in [10] (intestinal and hepatic microsomes from a different source) is listed as “metabolize to the active drug Compound 1; also recorded: conversion of Compound 4 to Compound 1 was observed”; in [10] (microsomal preparations obtained from Xenotech), “failed to convert”. Besides, in the data set “Water solubility” (aqueous buffer under physiological conditions), the “solubility of prodrug relative to active drug Compound 1” value is listed as “approximately 2000 times”. For the same compound, the solubility in the data set “Water solubility” (setting [13]) and in the data set “Water solubility” (setting [14]) was greater than 5000 µg/mL each time. For the same compound, the stability entry in [11] is “stable”.

`COc1cc(Nc2ncc(F)c(Nc3ccc4c(n3)N(COP(=O)(O)O)C(=O)C(C)(C)O4)n2)cc(OC)c1OC` [Prodrug Salt 6, N4-(2,2-dimethyl-4-[(dihydrogenphosphonoxy)methyl]-3-oxo-5-pyrido[1,4]oxazin-6-yl)-5-fluoro-N2-(3,4,5-trimethoxyphenyl)-2,4-pyrimidinediamine mono calcium salt]: the solubility in “Water solubility” (setting [15]) was 15 µg/mL.

As to `COc1cc(Nc2ncc(F)c(Nc3ccc4c(n3)N(COP(=O)([O-])[O-])C(=O)C(C)(C)O4)n2)cc(OC)c1OC.[Na+].[Na+]` [prodrug salt hydrate 32, N4-(2,2-dimethyl-4-[(dihydrogenphosphonoxy)methyl]-3-oxo-5-pyrido[1,4]oxazin-6-yl)-5-fluoro-N2-(3,4,5-trimethoxyphenyl)-2,4-pyrimidinediamine disodium salt hexahydrate], the water content entry in data set [12] (after humidity is increased) is listed as “approximately 14.0%”. Further, the moisture content result in data set [12] (dry conditions, ambient temperature, about 0% relative humidity) is given as “approximately 4.0%”. Moreover, in data set [12] (hexahydrate form), the “stability of hydration over relative humidity” value is recorded as “stable over a wide range of relative humidities”. Further, the solubility in the data set “Water solubility” (setting [15]) turned out to be 10000 µg/mL.
